Drawing on patent US8436030B2, “Polymorphic forms of deferasirox (ICL670A)” (Navartis AG, priority 2006, dated 2013), this text covers solubility for one compound.

A short description of this data set: Solubility of solid forms (comparative statement). Particulars: as compared to the crystalline form A or B. It is filed as physicochemical.

For the compound `O=C(O)c1ccc(-n2nc(-c3ccccc3O)nc2-c2ccccc2O)cc1` [amorphous form, 4-[3,5-bis(2-hydroxyphenyl)-[1,2,4]triazol-1-yl]benzoic acid], the solubility entry is recorded as “highest solubility”.
